Reference: PubChem BioAssay AID330 (DTP/NCI, 2004)
Values joined by “and” are separate entries in the source; they are usually repeats but may differ in a detail not shown here. Equal entries are not always repeated. Inconclusive results and toxic doses are left out. The calls were made as follows: active = survival T/C of 150% or more; inactive = T/C below 125% in these data.

System: P388 leukemia ip, CD2F1 mice, survival T/C
Test: NCI In Vivo Anticancer Drug Screen. Data for tumor model P388 Leukemia (intraperitoneal) in CD2F1 (CDF1) mice
Settings: endpoint: median survival time, higher = longer survival
Procedure, shortened: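 Mice carrying the transplanted tumor received test compound or vehicle. Survival was recorded in each group, and the value is the treated-group measurement divided by that of the vehicle-treated control group.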

[1] = dose: 60.0 mg/kg/injection, schedule: Q01DX005 (ip), vehicle: saline with Tween-80
[2] = dose: 120.0 mg/kg/injection, schedule: Q01DX005 (ip), vehicle: saline with Tween-80
[3] = dose: 240.0 mg/kg/injection, schedule: Q01DX005 (ip), vehicle: saline with Tween-80
[4] = dose: 25.0 mg/kg/injection, schedule: Q04DX002 (ip), vehicle: saline with Tween-80
[5] = dose: 50.0 mg/kg/injection, schedule: Q01DX005 (ip), vehicle: Klucel (hydroxypropylcellulose) (HPC)
[6] = dose: 100.0 mg/kg/injection, schedule: Q01DX005 (ip), vehicle: Klucel (hydroxypropylcellulose) (HPC)
[7] = dose: 200.0 mg/kg/injection, schedule: Q01DX005 (ip), vehicle: Klucel (hydroxypropylcellulose) (HPC)

Measured: T/C

Cc1ccc(C(C#N)C(=O)CCCC(=O)Nc2ccc(C)c(C)c2)cc1 (configuration not stated)
inactive: [1] 109 % of control | [2] 100 % of control | [3] 100 % of control

CCCCCCN=C(N)N/N=C(\C)c1ccc2c(c1)Cc1cc(/C(C)=N/NC(N)=NCCCCCC)ccc1-2
inactive: dose: 6.25 mg/kg/injection, schedule: Q04DX002 (ip), vehicle: saline with Tween-80 98 % of control | dose: 12.5 mg/kg/injection, schedule: Q04DX002 (ip), vehicle: saline with Tween-80 107 % of control | [4] 109 % of control | dose: 50.0 mg/kg/injection, schedule: Q04DX002 (ip), vehicle: saline with Tween-80 116 % of control

CC(=O)OCCOCNC(=S)N/N=C/c1ccccn1
inactive: [1] 115 % of control

Cc1nnsc1-c1nc2ccccc2[nH]1
inactive: [5] 95 % of control | [6] 102 % of control | [7] 104 % of control

CC1(C)OC2OC(/C=N\NC(=O)c3cc4cc(OCc5ccccc5)ccc4[nH]3)C3OC(C)(C)OC3C2O1 (configuration not stated)
inactive: [5] 102 % of control | [6] 104 % of control | [7] 102 % of control

Cn1c([N+](=O)[O-])cnc1/C=N\N1CC(CN2CCOCC2)OC1=O (configuration not stated)
inactive: dose: 50.0 mg/kg/injection, schedule: Q01DX009 (ip), vehicle: suspension in saline 100 % of control | dose: 100.0 mg/kg/injection, schedule: Q01DX009 (ip), vehicle: suspension in saline 100 % of control | dose: 200.0 mg/kg/injection, schedule: Q01DX009 (ip), vehicle: suspension in saline 100 % of control

COC(=O)/C=C(\C)NC1CC(OC2C[C@](O)(C(C)=O)Cc3c(O)c4c(c(O)c32)C(=O)c2c(OC)cccc2C4=O)OC(C)C1O (some centres not stated)
inactive: dose: 6.25 mg/kg/injection, schedule: Q04DX003 (ip), vehicle: saline with Tween-80 105 % of control | dose: 12.5 mg/kg/injection, schedule: Q04DX003 (ip), vehicle: saline with Tween-80 110 % of control and 113 % of control | dose: 50.0 mg/kg/injection, schedule: Q04DX003 (ip), vehicle: saline with Tween-80 96 % of control

CC12CCC3C(CCC4(O)C=CCCC34C=O)C1(O)CC(O)C2c1ccc(=O)oc1 (configuration not stated)
inactive: dose: 25.0 mg/kg/injection, schedule: Q01DX009 (ip), vehicle: saline with Tween-80 97 % of control | dose: 50.0 mg/kg/injection, schedule: Q01DX009 (ip), vehicle: saline with Tween-80 91 % of control | dose: 100.0 mg/kg/injection, schedule: Q01DX009 (ip), vehicle: saline with Tween-80 91 % of control | dose: 200.0 mg/kg/injection, schedule: Q01DX009 (ip), vehicle: saline with Tween-80 91 % of control

NC(=Nc1ccc(Cl)cc1)N/N=C/c1ccc(Cl)c(Cl)c1
inactive: [4] 103 % of control | dose: 40.0 mg/kg/injection, schedule: Q04DX002 (ip), vehicle: saline with Tween-80 100 % of control | dose: 100.0 mg/kg/injection, schedule: Q04DX002 (ip), vehicle: saline with Tween-80 106 % of control | dose: 200.0 mg/kg/injection, schedule: Q04DX002 (ip), vehicle: saline with Tween-80 107 % of control | dose: 400.0 mg/kg/injection, schedule: Q04DX002 (ip), vehicle: saline with Tween-80 113 % of control

CCOC(=O)N1c2ccccc2SC1C#N (configuration not stated)
inactive: [1] 97 % of control | [2] 92 % of control | [3] 105 % of control

CCCN(CCC)CC(=O)NC1c2ccccc2Oc2ccccc21
inactive: [5] 101 % of control | [6] 101 % of control | [7] 90 % of control

CCN(CC)Cc1cc(N2C(=O)CC3(CCCC3)C2=O)ccc1O
inactive: dose: 100.0 mg/kg/injection, schedule: Q04DX003 (ip), vehicle: Klucel (hydroxypropylcellulose) (HPC) 100 % of control | dose: 200.0 mg/kg/injection, schedule: Q04DX003 (ip), vehicle: Klucel (hydroxypropylcellulose) (HPC) 102 % of control | dose: 400.0 mg/kg/injection, schedule: Q04DX003 (ip), vehicle: Klucel (hydroxypropylcellulose) (HPC) 105 % of control
